Source: ChEMBL document CHEMBL1649264, “ATP synthase inhibition of Mycobacterium avium is not bactericidal” (2009)
Converted amounts (≈) assume the structure as drawn. “And” between values parts separate entries of the source, which are not always exact repeats. Equal values may be shown once.

Legend:
Format in all cases: functional
Mycobacterium avium [1] = assay: Antitubercular activity against Mycobacterium avium infected in C57BL/6J mouse assessed as reduction of CFU counts in spleen at 200 mg/kg, po administered one month post-infection five times weekly for 1 month (reference value: 7.4 +/- 1.7 log10CFU)
Mycobacterium avium [2] = assay: Antitubercular activity against Mycobacterium avium infected in C57BL/6J mouse assessed as reduction of CFU counts in spleen at 25 mg/kg, po administered one month post-infection five times weekly for 3 months (reference value: 7.9 +/- 0.7 log10CFU)
Mycobacterium avium [3] = assay: Antitubercular activity against Mycobacterium avium infected in C57BL/6J mouse assessed as reduction of CFU counts in spleen at 150 mg/kg, sc administered one month post-infection five times weekly for 2 months (reference value: 9.4 +/- 0.2 log10CFU); settings: route subcutaneous
Mycobacterium avium [4] = assay: Antitubercular activity against Mycobacterium avium infected in C57BL/6J mouse assessed as reduction of CFU counts in spleen at 200 mg/kg, po administered one month post-infection five times weekly for 4 months (reference value: 8.9 +/- 0.3 log10CFU)
Mycobacterium avium [5] = assay: Antitubercular activity against Mycobacterium avium infected in C57BL/6J mouse assessed as reduction of CFU counts in spleen at 200 mg/kg, po administered one day post-infection five times weekly for 1 month (reference value: 8.0 +/- 0.9 log10CFU)
Mycobacterium avium [6] = assay: Antitubercular activity against Mycobacterium avium infected in C57BL/6J mouse assessed as reduction of CFU counts in spleen at 25 mg/kg, po administered one day post-infection five times weekly for 1 month (reference value: 8.0 +/- 0.9 log10CFU)
Mycobacterium avium [7] = assay: Antitubercular activity against Mycobacterium avium infected in C57BL/6J mouse assessed as reduction of CFU counts in spleen at 25 mg/kg, po administered one month post-infection five times weekly for 4 months (reference value: 8.9 +/- 0.3 log10CFU)
Mycobacterium avium [8] = assay: Antimicrobial activity against Mycobacterium avium
Mycobacterium avium [9] = assay: Antitubercular activity against Mycobacterium avium infected in C57BL/6J mouse assessed as reduction of CFU counts in spleen at 200 mg/kg, po administered one month post-infection five times weekly for 2 months (reference value: 9.4 +/- 0.2 log10CFU)
Mycobacterium avium [10] = assay: Antitubercular activity against Mycobacterium avium infected in C57BL/6J mouse assessed as reduction of CFU counts in spleen at 25 mg/kg, po administered one month post-infection five times weekly for 1 month (reference value: 7.4 +/- 1.7 log10CFU)
[11] = system: Mycobacterium tuberculosis; assay: Antimicrobial activity against Mycobacterium tuberculosis
Mycobacterium avium [12] = assay: Antitubercular activity against Mycobacterium avium infected in C57BL/6J mouse assessed as reduction of CFU counts in spleen at 150 mg/kg, sc administered one month post-infection five times weekly for 3 months (reference value: 7.9 +/- 0.7 log10CFU); settings: route subcutaneous
Mycobacterium avium [13] = assay: Antitubercular activity against Mycobacterium avium infected in C57BL/6J mouse assessed as reduction of CFU counts in spleen at 200 mg/kg, po administered one month post-infection five times weekly for 3 months (reference value: 7.9 +/- 0.7 log10CFU)
Mycobacterium avium [14] = assay: Antitubercular activity against Mycobacterium avium infected in C57BL/6J mouse assessed as reduction of CFU counts in spleen at 150 mg/kg, sc administered one month post-infection five times weekly for 1 month (reference value: 7.4 +/- 1.7 log10CFU); settings: route subcutaneous
Mycobacterium avium [15] = assay: Antitubercular activity against Mycobacterium avium infected in C57BL/6J mouse assessed as reduction of CFU counts in spleen at 150 mg/kg, sc administered one month post-infection five times weekly for 4 months (reference value: 8.9 +/- 0.3 log10CFU); settings: route subcutaneous
Mycobacterium avium [16] = assay: Antitubercular activity against Mycobacterium avium infected in C57BL/6J mouse assessed as reduction of CFU counts in spleen at 25 mg/kg, po administered one month post-infection five times weekly for 2 months (reference value: 9.4 +/- 0.2 log10CFU)

`CC[C@H]1OC(=O)[C@H](C)[C@@H](O[C@H]2C[C@@](C)(OC)[C@@H](O)[C@H](C)O2)[C@H](C)[C@@H](O[C@@H]2O[C@H](C)C[C@H](N(C)C)[C@H]2O)[C@](C)(OC)C[C@@H](C)C(=O)[C@H](C)[C@@H](O)[C@]1(C)O` [CLARITHROMYCIN] gave a log10cfu (Mycobacterium avium [1]) of 6.6, a log10cfu (Mycobacterium avium [2]) of 6.2 and a log10cfu (Mycobacterium avium [3]) of 5. It also gave a log10cfu (Mycobacterium avium [4]) of 7.2 and a log10cfu (Mycobacterium avium [5]) of 6.
For `COc1nc2ccc(Br)cc2cc1[C@@H](c1ccccc1)[C@@](O)(CCN(C)C)c1cccc2ccccc12` [BEDAQUILINE], the log10cfu (Mycobacterium avium [6]) was 5.4, the log10cfu (Mycobacterium avium [7]) was 6.5 and the MIC (Mycobacterium avium [8]) was 0.007 µg/mL and 0.015 µg/mL. The log10cfu (Mycobacterium avium [9]) was 7.7, the log10cfu (Mycobacterium avium [10]) was 6.5 and the MIC [11] was 0.06 µg/mL (≈ 0.108 µM). The log10cfu (Mycobacterium avium [12]) was 6.6.
For `NCC[C@H](O)C(=O)N[C@@H]1C[C@H](N)[C@@H](O[C@H]2O[C@H](CN)[C@@H](O)[C@H](O)[C@H]2O)[C@H](O)[C@H]1O[C@H]1O[C@H](CO)[C@@H](O)[C@H](N)[C@H]1O` [AMIKACIN], the log10cfu (Mycobacterium avium [13]) was 7.2, the log10cfu (Mycobacterium avium [14]) was 5.9 and the log10cfu (Mycobacterium avium [15]) was 3.5. For the same molecule, the log10cfu (Mycobacterium avium [16]) was 6.7.
